From US9708331B2, “Metabotrophic glutamate receptor 5 modulators and methods of use thereof” (SUNOVION PHARMACEUTICALS INC., priority 2011, dated 2017) come the findings set out here.

The target of data set [1] is T1, mGluR5 (Homo sapiens, UniProt P41594). The data set is described as follows: mGluR5 fold shift at a fixed compound concentration. In kind it is cell-based.
For data set [2], the target named is T1, mGluR5. The data set is described as follows: mGluR5 PAM EC50 (positive allosteric modulator potency). Type of data set: cell-based.

T1 sequence (P41594 21-1212): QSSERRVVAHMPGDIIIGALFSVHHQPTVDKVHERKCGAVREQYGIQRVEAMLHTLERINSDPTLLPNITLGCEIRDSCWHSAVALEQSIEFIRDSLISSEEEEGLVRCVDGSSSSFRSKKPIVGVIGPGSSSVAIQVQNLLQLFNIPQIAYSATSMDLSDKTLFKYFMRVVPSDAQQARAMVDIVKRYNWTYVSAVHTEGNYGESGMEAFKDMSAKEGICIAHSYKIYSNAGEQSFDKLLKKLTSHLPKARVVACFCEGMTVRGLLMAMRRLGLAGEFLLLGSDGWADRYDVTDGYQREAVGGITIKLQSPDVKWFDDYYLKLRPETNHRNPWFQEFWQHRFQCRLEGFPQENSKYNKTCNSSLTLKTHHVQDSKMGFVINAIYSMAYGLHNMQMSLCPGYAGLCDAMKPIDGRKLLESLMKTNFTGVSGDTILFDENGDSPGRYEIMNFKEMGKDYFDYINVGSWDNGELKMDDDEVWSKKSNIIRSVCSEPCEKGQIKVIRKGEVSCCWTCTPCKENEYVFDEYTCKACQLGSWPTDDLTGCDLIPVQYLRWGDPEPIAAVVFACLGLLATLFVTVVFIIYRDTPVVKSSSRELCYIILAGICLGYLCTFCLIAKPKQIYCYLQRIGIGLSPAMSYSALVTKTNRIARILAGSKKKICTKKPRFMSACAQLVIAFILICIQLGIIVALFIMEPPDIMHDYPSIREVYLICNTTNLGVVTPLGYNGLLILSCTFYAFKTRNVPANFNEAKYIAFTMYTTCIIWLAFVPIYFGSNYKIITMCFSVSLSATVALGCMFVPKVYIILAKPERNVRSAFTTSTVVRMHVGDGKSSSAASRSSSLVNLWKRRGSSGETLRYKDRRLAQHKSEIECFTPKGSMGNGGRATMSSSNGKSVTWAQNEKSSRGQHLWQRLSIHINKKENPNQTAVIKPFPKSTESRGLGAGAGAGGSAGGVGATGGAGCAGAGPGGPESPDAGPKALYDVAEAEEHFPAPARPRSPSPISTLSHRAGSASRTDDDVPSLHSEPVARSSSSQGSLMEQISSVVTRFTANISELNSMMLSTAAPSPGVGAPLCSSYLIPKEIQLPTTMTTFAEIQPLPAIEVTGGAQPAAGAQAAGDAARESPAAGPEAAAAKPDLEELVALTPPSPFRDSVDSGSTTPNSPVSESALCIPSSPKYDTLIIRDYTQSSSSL

One may read the EC50 as the concentration needed to bring the measured effect to its halfway point. Lower therefore signals a more potent agent. On to `O=c1c2ccc(C#Cc3ccccn3)cc2nc2n1CC(C(F)(F)F)C2` (single isomer, unassigned) [Example 1.8a], for which the “Fold shift at 1 μM” value in data set [1] is on record as “+++ (+++>3)”. Moreover, the EC50 in data set [2] was in the range of 0.01 to 0.03 µM.

`O=c1c2ccc(C#Cc3ccccn3)cc2nc2n1CC(C(F)(F)F)C2` (single isomer, unassigned) [Example 1.8b]: the “Fold shift at 1 μM” value in data set [1] was “+ (+ is between 1.5 and 1.9)”. Also, the EC50 in data set [2] fell in the range of 0.03 to 0.1 µM.

For the compound `CC1CCn2c(nc3cc(C#Cc4ccccn4)ccc3c2=O)C1` (single isomer, unassigned) [Example 2.1b], in data set [1], the “Fold shift at 1 μM” value is “++ (++ is between 2.0 and 2.9)”.

Turning to `COC1(C)CCc2nc3cc(C#Cc4ccccn4)ccc3c(=O)n2C1` (single isomer, unassigned) [Example 2.8a], the “Fold shift at 10 μM” value in data set [1] is “++ (++ is between 2.0 and 2.9)”. In data set [2], the EC50 lay in the range of 0.1 to 0.3 µM.

On to `COC1(C)CCc2nc3cc(C#Cc4ccccn4)ccc3c(=O)n2C1` (single isomer, unassigned) [Example 2.8b], for which the “Fold shift at 1 μM” value in data set [1] is recorded as “+++ (+++>3)”. The EC50 in data set [2] was in the range of 0.03 to 0.1 µM.

Turning to `O=c1c2ccc(C#Cc3ccccn3)cc2nc2n1C1CCC2C1` (single isomer, unassigned) [Example 2.9a], the “Fold shift at 1 μM” value in data set [1] is “+ (+ is between 1.5 and 1.9)”. This compound gave an EC50 in data set [2] of 0.01 to 0.03 µM.

With `O=c1c2ccc(C#Cc3ccccn3)cc2nc2n1C1CCC2C1` (single isomer, unassigned) [Example 2.9b], the “Fold shift at 1 μM” value in data set [1] was “++ (++ is between 2.0 and 2.9)”.

Turning to `O=c1c2ccc(C#Cc3ccccn3)cc2nc2n1CCC1CC21` (single isomer, unassigned) [Example 2.10a], in data set [1], the “Fold shift at 1 μM” value was “++ (++ is between 2.0 and 2.9)”. In data set [2], this compound showed an EC50 of 0.03 to 0.1 µM.

With `CC1(C)CC(F)c2nc3cc(C#Cc4ccccn4)ccc3c(=O)n2C1` (single isomer, unassigned) [Example 2.12a], in data set [1], the “Fold shift at 10 μM” value was “+++ (+++>3)”. In data set [2], the EC50 is less than 0.01 µM.

As to `CC1(C)CC(F)c2nc3cc(C#Cc4ccccn4)ccc3c(=O)n2C1` (single isomer, unassigned) [Example 2.12b], in data set [1], the “Fold shift at 10 μM” value is “+ (+ is between 1.5 and 1.9)”.

For the compound `COC1(C)CCc2nc3cc(C#Cc4ccccn4)ccc3c(=O)n2CC1` (single isomer, unassigned) [Example 3.4a], the “Fold shift at 10 μM” value in data set [1] is on record as “+++ (+++>3)”. In data set [2], this compound registered an EC50 of 0.03 to 0.1 µM.

With `COC1(C)CCc2nc3cc(C#Cc4ccccn4)ccc3c(=O)n2CC1` (single isomer, unassigned) [Example 3.4b], the “Fold shift at 10 μM” value in data set [1] was “++ (++ is between 2.0 and 2.9)”.

Turning to `CC1(F)CCc2nc3cc(C#Cc4ccccn4)cnc3c(=O)n2CC1` (single isomer, unassigned) [Example 3.10b], the “Fold shift at 1 μM” value in data set [1] is listed as “+++ (+++>3)”. Moreover, the EC50 in data set [2] was 0.03 to 0.1 µM.

Turning to `COC1CCc2nc3cc(C#Cc4ccccn4)ccc3c(=O)n2CC1` (single isomer, unassigned) [Example 3.11b], the “Fold shift at 1 μM” value in data set [1] is “++ (++ is between 2.0 and 2.9)”. Also, the concentration for a half-maximal effect (EC50) in data set [2] is 0.01 to 0.03 µM.

`CC1CCc2cc3cc(C#Cc4ccccn4)ccc3c(=O)n2CC1` (single isomer, unassigned) [Example 3.20a]: the “Fold shift at 10 μM” value in data set [1] is recorded as “+++ (+++>3)”. The same compound showed an EC50 in data set [2] of less than 0.01 µM.

With `CC1Cc2nc3cc(C#Cc4ccccn4)ccc3c(=O)n2CCC1(F)F` (single isomer, unassigned) [Example 3.30c], the “Fold shift at 10 μM” value in data set [1] is given as “+++ (+++>3)”. The same compound displayed a 50% effective concentration (EC50) in data set [2] of 0.01 to 0.03 µM.

As for `CC1Cc2nc3cc(C#Cc4ccccn4)ccc3c(=O)n2CCC1(F)F` (single isomer, unassigned) [Example 3.30d], the “Fold shift at 10 μM” value in data set [1] was “+ (+ is between 1.5 and 1.9)”.

`CC1Cn2c(nc3cc(C#Cc4ccccn4)ccc3c2=O)CCC1(F)F` (single isomer, unassigned) [Example 3.30f]: in data set [1], the “Fold shift at 10 μM” value was “++ (++ is between 2.0 and 2.9)”. Moreover, the EC50 in data set [2] lay within 0.01 to 0.03 µM.

The compound `O=c1c2ccc(C#Cc3ccccn3)cc2nc2n1CC1(CCC2)COC1` [Example 3.38, 3-(pyridin-2-ylethynyl)-7,8-dihydro-6H-spiro[azepino[2,1-b]quinazoline-9,3′-oxetan]-12(10H)-one] showed an EC50 in data set [2] of 0.01 to 0.03 µM.

In data set [2], `CC1(C)C=Cc2nc3cc(C#Cc4ccccn4)ccc3c(=O)n2CC1` [Example 3.42, 8,8-dimethyl-3-(pyridin-2-ylethynyl)-9,10-dihydroazepino[2,1-b]quinazolin-12(8H)-one] gave an EC50 of 0.03 to 0.1 µM.

Compound `CC1(C)CCn2c(nc3cc(/C=C/c4cc(C#N)ccn4)ccc3c2=O)C1` [Example 4.1a, (E)-2-(2-(7,7-dimethyl-11-oxo-7,8,9,11-tetrahydro-6H-pyrido[2,1-b]quinazolin-3-yl)vinyl)isonicotinonitrile] yielded an EC50 in data set [2] of 0.3 to 1 µM.

In the case of `CC1(C)CCc2nc3cc(/C=C/c4cc(C#N)ccn4)ccc3c(=O)n2C1` [Example 4.1b, (E)-2-(2-(8,8-dimethyl-11-oxo-7,8,9,11-tetrahydro-6H-pyrido[2,1-b]quinazolin-3-yl)vinyl)isonicotinonitrile], the EC50 in data set [2] lay within 0.3 to 1 µM.

The compound `Cc1csc(/C=C/c2ccc3c(=O)n4c(nc3c2)CCC(C)(C)C4)n1` [Example 4.3, (E)-8,8-dimethyl-3-(2-(4-methylthiazol-2-yl)vinyl)-8,9-dihydro-6H-pyrido[2,1-b]quinazolin-11(7H)-one] gave an EC50 in data set [2] of 0.01 to 0.03 µM.

In the case of `CC1(C)CCc2nc3cc(OCc4ccccn4)ccc3c(=O)n2C1` [Example 4.5, 8,8-dimethyl-3-(pyridin-2-ylmethoxy)-8,9-dihydro-6H-pyrido[2,1-b]quinazolin-11(7H)-one], the EC50 in data set [2] fell in the range of 0.03 to 0.1 µM.

In the case of `CC1(C)CCc2nc3cc(NC(=O)c4ccccn4)ccc3c(=O)n2C1` [Example 4.7, N-(8,8-dimethyl-11-oxo-7,8,9,11-tetrahydro-6H-pyrido[2,1-b]quinazolin-3-yl)picolinamide], the EC50 in data set [2] lay in the range of 0.1 to 0.3 µM.

Take `CC1(C)CCc2nc3cc(C(=O)Nc4ccccn4)ccc3c(=O)n2C1` [Example 4.8, 8,8-dimethyl-11-oxo-N-(pyridin-2-yl)-7,8,9,11-tetrahydro-6H-pyrido[2,1-b]quinazoline-3-carboxamide]: the EC50 in data set [2] lay in the range of 0.1 to 0.3 µM.

In the case of `CC1(C)Cc2nc3cc(C(=O)Nc4ccccn4)ccc3c(=O)n2C1` [Example 4.17, 2,2-dimethyl-9-oxo-N-(pyridin-2-yl)-1,2,3,9-tetrahydropyrrolo[2,1-b]quinazoline-6-carboxamide], the EC50 in data set [2] fell in the range of 0.3 to 1 µM.

`CC1(C)Cc2nc3cc(NC(=O)c4ccccn4)ccc3c(=O)n2C1` [Example 4.18, N-(2,2-dimethyl-9-oxo-1,2,3,9-tetrahydropyrrolo[2,1-b]quinazolin-6-yl)picolinamide] had an EC50 in data set [2] of 0.3 to 1 µM.

Turning to `O=C(Nc1ccccn1)c1ccc2c(=O)n3c(nc2c1)CCC(F)(F)CC3` [Example 5.4, 8,8-difluoro-12-oxo-N-(pyridin-2-yl)-6,7,8,9,10,12-hexahydroazepino[2,1-b]quinazoline-3-carboxamide], the EC50 in data set [2] was 0.3 to 1 µM.

Compound `CC1(C)CCc2nc3cc(Nc4ccccn4)ccc3c(=O)n2C1` [Example 6.2, 8,8-dimethyl-3-(pyridin-2-ylamino)-8,9-dihydro-6H-pyrido[2,1-b]quinazolin-11(7H)-one] yielded an EC50 in data set [2] of 0.3 to 1 µM.

As for `CC1(C)CCc2nc3cc(COc4ccccn4)ccc3c(=O)n2C1` [Example 6.4, 8,8-dimethyl-3-((pyridin-2-yloxy)methyl)-8,9-dihydro-6H-pyrido[2,1-b]quinazolin-11(7H)-one], the EC50 in data set [2] was 0.1 to 0.3 µM.

With `C/C(=C\c1ccc2c(=O)n3c(nc2c1)CCC(C)(C)C3)c1ccccn1` [Example 6.5, (E)-8,8-dimethyl-3-(2-(pyridin-2-yl)prop-1-en-1-yl)-8,9-dihydro-6H-pyrido[2,1-b]quinazolin-11(7H)-one], the EC50 in data set [2] was in the range of 0.1 to 0.3 µM.

Take `CC1(C)CCc2nc3cc(C(=O)Cc4ccccn4)ccc3c(=O)n2C1` [Example 6.7, 8,8-dimethyl-3-(2-(pyridin-2-yl)acetyl)-8,9-dihydro-6H-pyrido[2,1-b]quinazolin-11(7H)-one]: the EC50 in data set [2] was in the range of 0.03 to 0.1 µM.

With `CC1(C)CCc2nc3cc(NC(=O)Nc4ccccn4)ccc3c(=O)n2C1` [Example 6.12, 1-(8,8-dimethyl-11-oxo-7,8,9,11-tetrahydro-6H-pyrido[2,1-b]quinazolin-3-yl)-3-(pyridin-2-yl)urea], the EC50 in data set [2] was in the range of 0.3 to 1 µM.

For the compound `CC1(C)CCc2nc3cc(-c4nc(-c5ccccn5)c[nH]4)ccc3c(=O)n2C1` [Example 6.21, 8,8-dimethyl-3-(4-(pyridin-2-yl)-1H-imidazol-2-yl)-8,9-dihydro-6H-pyrido[2,1-b]quinazolin-11(7H)-one], the EC50 in data set [2] was 0.3 to 1 µM.

In data set [2], `CC1(C)CCc2nc3cc(-c4ncc(-c5ccccn5)o4)ccc3c(=O)n2C1` [Example 6.25, 8,8-dimethyl-3-(5-(pyridin-2-yl)oxazol-2-yl)-8,9-dihydro-6H-pyrido[2,1-b]quinazolin-11(7H)-one] gave an EC50 of 0.1 to 0.3 µM.

`CC1(C)CCc2nc3cc(-c4cnc(-c5ccccn5)s4)ccc3c(=O)n2C1` [Example 6.28, 8,8-dimethyl-3-(2-(pyridin-2-yl)thiazol-5-yl)-8,9-dihydro-6H-pyrido[2,1-b]quinazolin-11(7H)-one] gave an EC50 in data set [2] of 0.3 to 1 µM.

In data set [2], `CC1(C)CCc2nc3cc(-c4nnc(-c5ccccn5)o4)ccc3c(=O)n2C1` [Example 6.35, 8,8-dimethyl-3-(5-(pyridin-2-yl)-1,3,4-oxadiazol-2-yl)-8,9-dihydro-6H-pyrido[2,1-b]quinazolin-11(7H)-one] returned an EC50 of 0.1 to 0.3 µM.

On to `CC1(C)CCc2nc3cc(-c4nnc(-c5ccccn5)s4)ccc3c(=O)n2C1` [Example 6.38, 8,8-dimethyl-3-(5-(pyridin-2-yl)-1,3,4-thiadiazol-2-yl)-8,9-dihydro-6H-pyrido[2,1-b]quinazolin-11(7H)-one], for which the EC50 in data set [2] was 0.1 to 0.3 µM.

`CC1(C)CCc2nc3cc(-c4ncc(-c5ccccn5)cn4)ccc3c(=O)n2C1` [Example 6.42, 8,8-dimethyl-3-(5-(pyridin-2-yl)pyrimidin-2-yl)-8,9-dihydro-6H-pyrido[2,1-b]quinazolin-11(7H)-one]: the half-maximal effective concentration (EC50) in data set [2] is 0.3 to 1 µM.
